The text below walks through data of US20120101032A1, “NOVEL MACROCYCLIC INHIBITORS OF HEPATITIS C VIRUS REPLICATION” (priority 2010, published 2012).

The target of test [1] is NS3/NS4 complexes (Hepatitis C virus genotype 1a, UniProt P27958). As to the kind of experiment: biochemical. Particulars: NS3-NS4 activity; 23° C., pH 7.5, 25 μM NS4A peptide; read-out: IC50. From the text:
NS3-NS4 inhibition activity can be determined using known assay methods. For example, NS3/NS4 complexes may be formed and inhibitory concentrations of test compounds determined as described in U.S. Patent Application Publication Number 2007/0054842 paragraph numbers 1497-1509, which is incorporated herein by reference in its entirety. Similarly, hepatitis C replicon EC50 may be determined using known assay methods such as described in U.S. Patent Application Publication Number 2007/0054842 paragraph numbers 1510-1515, which is incorporated herein by reference in its entirety. Assays may be conducted at ambient temperature (23° C.) in assay buffer containing 50 mM Tris-HCl, pH 7.5, 15% glycerol, 0.6 mM Lauryldimethylamine Oxide (LDAO), 25 μM NS4A peptide, and 10 mM Dithiothreitol (DTT).

The test system of test [2] is hepatitis C replicon. Kind of test: hepatitis C replicon EC50 assay. The test is classed as cell-based. Conditions: Hepatitis C virus; hepatitis C replicon; read-out: EC50. From the text: NS3-NS4 inhibition activity can be determined using known assay methods.
(A replicon is a self-replicating genome or part of one, used to study replication in cells.)

Sequence of NS3/NS4 complexes (P27958 1027-1657, one chain of several): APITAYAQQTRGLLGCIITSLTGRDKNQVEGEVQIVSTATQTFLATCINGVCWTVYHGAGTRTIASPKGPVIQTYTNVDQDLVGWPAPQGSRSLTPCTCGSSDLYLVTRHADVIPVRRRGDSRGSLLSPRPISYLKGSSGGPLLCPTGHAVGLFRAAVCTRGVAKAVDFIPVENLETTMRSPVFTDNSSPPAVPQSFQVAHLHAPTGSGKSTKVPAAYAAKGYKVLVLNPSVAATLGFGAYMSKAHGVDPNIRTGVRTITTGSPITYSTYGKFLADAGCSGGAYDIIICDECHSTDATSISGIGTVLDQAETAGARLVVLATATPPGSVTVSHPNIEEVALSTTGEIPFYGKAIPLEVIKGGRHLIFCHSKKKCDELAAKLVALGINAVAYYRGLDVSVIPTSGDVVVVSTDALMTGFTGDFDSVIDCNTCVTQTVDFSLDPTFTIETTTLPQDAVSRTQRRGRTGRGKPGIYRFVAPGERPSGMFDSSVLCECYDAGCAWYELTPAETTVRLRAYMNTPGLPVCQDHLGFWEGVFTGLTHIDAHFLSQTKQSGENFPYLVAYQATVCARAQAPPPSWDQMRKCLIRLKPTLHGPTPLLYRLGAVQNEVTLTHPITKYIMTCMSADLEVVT

A word on the IC50: it is the concentration needed to halve the response being measured. As usually defined, the EC50 is the concentration needed to bring the measured effect to its halfway point. Regarding `CC(C)n1c(O[C@@H]2C[C@H]3C(=O)N[C@]4(C(=O)NS(=O)(=O)C5(C)CC5)C[C@H]4/C=C\CCCCC[C@H](NC(=O)OC(C)(C)C)C(=O)N3C2)nc2c(-c3nc(-c4cccc(Cl)c4)cs3)cccc21` [Compound 101], in test [1], the IC50 is below 10 nM. Moreover, in test [2], the EC50 lay within 10 to 100 nM.

Take `COc1ccccc1-c1csc(-c2cccc3c2nc(O[C@@H]2C[C@H]4C(=O)N[C@]5(C(=O)NS(=O)(=O)C6(C)CC6)C[C@H]5/C=C\CCCCC[C@H](NC(=O)OC(C)(C)C)C(=O)N4C2)n3C(C)C)n1` [Compound 102]: in test [1], the IC50 was below 10 nM. Also, the EC50 in test [2] is below 10 nM.

`COc1cccc(-c2csc(-c3cccc4c3nc(O[C@@H]3C[C@H]5C(=O)N[C@]6(C(=O)NS(=O)(=O)C7(C)CC7)C[C@H]6/C=C\CCCCC[C@H](NC(=O)OC(C)(C)C)C(=O)N5C3)n4C(C)C)n2)c1` [Compound 103]: the IC50 in test [1] is below 10 nM. The EC50 in test [2] was below 10 nM.

Turning to `CC(C)n1c(O[C@@H]2C[C@H]3C(=O)N[C@]4(C(=O)NS(=O)(=O)C5(C)CC5)C[C@H]4/C=C\CCCCC[C@H](NC(=O)OC(C)(C)C)C(=O)N3C2)nc2c(-c3nc(-c4cccc(F)c4)cs3)cccc21` [Compound 104], the IC50 in test [1] is below 10 nM. Further, the EC50 in test [2] is 10 to 100 nM.

As to `CC(C)n1c(O[C@@H]2C[C@H]3C(=O)N[C@]4(C(=O)NS(=O)(=O)C5(C)CC5)C[C@H]4/C=C\CCCCC[C@H](NC(=O)OC(C)(C)C)C(=O)N3C2)nc2c(-c3nc(-c4ccc(Br)cc4)cs3)cccc21` [Compound 106], the IC50 in test [1] is below 10 nM. Moreover, the EC50 in test [2] is above 100 nM.

Consider `CC(C)n1c(O[C@@H]2C[C@H]3C(=O)N[C@]4(C(=O)NS(=O)(=O)C5(C)CC5)C[C@H]4/C=C\CCCCC[C@H](NC(=O)OC(C)(C)C)C(=O)N3C2)nc2c(-c3nc(-c4ccc(Cl)c(Cl)c4)cs3)cccc21` [Compound 107], for which, in test [1], the IC50 is below 10 nM. The EC50 in test [2] is 10 to 100 nM.

On to `CC(C)n1c(O[C@@H]2C[C@H]3C(=O)N[C@]4(C(=O)NS(=O)(=O)C5(C)CC5)C[C@H]4/C=C\CCCCC[C@H](NC(=O)OC(C)(C)C)C(=O)N3C2)nc2c(-c3nc(-c4ccc(F)c(F)c4)cs3)cccc21` [Compound 108], for which the IC50 in test [1] is below 10 nM. Also, the EC50 in test [2] was below 10 nM.

`CC(C)n1c(O[C@@H]2C[C@H]3C(=O)N[C@]4(C(=O)NS(=O)(=O)C5(C)CC5)C[C@H]4/C=C\CCCCC[C@H](NC(=O)OC(C)(C)C)C(=O)N3C2)nc2c(-c3nc(-c4ccc(F)c(C(F)(F)F)c4)cs3)cccc21` [Compound 109]: the half-maximal inhibitory concentration (IC50) in test [1] was below 10 nM. For the same molecule, the EC50 in test [2] fell in the range of 10 to 100 nM.

As to `CC(C)n1c(O[C@@H]2C[C@H]3C(=O)N[C@]4(C(=O)NS(=O)(=O)C5(C)CC5)C[C@H]4/C=C\CCCCC[C@H](NC(=O)OC(C)(C)C)C(=O)N3C2)nc2c(-c3nc(-c4ccc(OC(F)(F)F)cc4)cs3)cccc21` [Compound 110], in test [1], the IC50 is below 10 nM. Moreover, in test [2], the EC50 is above 100 nM.

With `CC(C)n1c(O[C@@H]2C[C@H]3C(=O)N[C@]4(C(=O)NS(=O)(=O)C5(C)CC5)C[C@H]4/C=C\CCCCC[C@H](NC(=O)OC(C)(C)C)C(=O)N3C2)nc2c(-c3nc(-c4ccc(F)cc4F)cs3)cccc21` [Compound 111], the IC50 in test [1] was below 10 nM. Moreover, the EC50 in test [2] was 10 to 100 nM.

With `CC(C)n1c(O[C@@H]2C[C@H]3C(=O)N[C@]4(C(=O)NS(=O)(=O)C5(C)CC5)C[C@H]4/C=C\CCCCC[C@H](NC(=O)OC(C)(C)C)C(=O)N3C2)nc2c(-c3nc(-c4ccc5c(c4)OCCO5)cs3)cccc21` [Compound 112], the IC50 in test [1] was below 10 nM. Besides, the EC50 in test [2] was below 10 nM.

In the case of `CC(C)n1c(O[C@@H]2C[C@H]3C(=O)N[C@]4(C(=O)NS(=O)(=O)C5(C)CC5)C[C@H]4/C=C\CCCCC[C@H](NC(=O)OC(C)(C)C)C(=O)N3C2)nc2c(-c3nc(-c4ccc(C(C)(C)C)cc4)cs3)cccc21` [Compound 113], the IC50 in test [1] was below 10 nM. Besides, the 50% effective concentration (EC50) in test [2] is 10 to 100 nM.

For the molecule `Cc1ccccc1Cc1csc(-c2cccc3c2nc(O[C@@H]2C[C@H]4C(=O)N[C@]5(C(=O)NS(=O)(=O)C6(C)CC6)C[C@H]5/C=C\CCCCC[C@H](NC(=O)OC(C)(C)C)C(=O)N4C2)n3C(C)C)n1` [Compound 114], the IC50 in test [1] was below 10 nM. Further, the EC50 in test [2] was below 10 nM.

For the molecule `COc1ccccc1Cc1csc(-c2cccc3c2nc(O[C@@H]2C[C@H]4C(=O)N[C@]5(C(=O)NS(=O)(=O)C6(C)CC6)C[C@H]5/C=C\CCCCC[C@H](NC(=O)OC(C)(C)C)C(=O)N4C2)n3C(C)C)n1` [Compound 115], the IC50 in test [1] was below 10 nM. In addition, the EC50 in test [2] was below 10 nM.

In the case of `CC(C)c1ccc(Cc2csc(-c3cccc4c3nc(O[C@@H]3C[C@H]5C(=O)N[C@]6(C(=O)NS(=O)(=O)C7(C)CC7)C[C@H]6/C=C\CCCCC[C@H](NC(=O)OC(C)(C)C)C(=O)N5C3)n4C(C)C)n2)cc1` [Compound 116], the IC50 in test [1] was below 10 nM. The EC50 in test [2] was in the range of 10 to 100 nM.

For `CC(C)n1c(O[C@@H]2C[C@H]3C(=O)N[C@]4(C(=O)NS(=O)(=O)C5(C)CC5)C[C@H]4/C=C\CCCCC[C@H](NC(=O)OC(C)(C)C)C(=O)N3C2)nc2c(-c3nc(Cc4cccc(Br)c4)cs3)cccc21` [Compound 117], in test [1], the IC50 is below 10 nM. Moreover, the EC50 in test [2] lay in the range of 10 to 100 nM.

For `CC(C)n1c(O[C@@H]2C[C@H]3C(=O)N[C@]4(C(=O)NS(=O)(=O)C5(C)CC5)C[C@H]4/C=C\CCCCC[C@H](NC(=O)OC(C)(C)C)C(=O)N3C2)nc2c(-c3nc(Cc4ccc(-c5ccccc5)cc4)cs3)cccc21` [Compound 118], in test [1], the IC50 is below 10 nM. In addition, in test [2], the EC50 is below 10 nM.

Take `CC(C)n1c(O[C@@H]2C[C@H]3C(=O)N[C@]4(C(=O)NS(=O)(=O)C5(C)CC5)C[C@H]4/C=C\CCCCC[C@H](NC(=O)OC(C)(C)C)C(=O)N3C2)nc2c(-c3nc(Cc4cccc(C(F)(F)F)c4)cs3)cccc21` [Compound 119]: the IC50 in test [1] is below 10 nM. In test [2], the EC50 lay in the range of 10 to 100 nM.

For the molecule `CC(C)n1c(O[C@@H]2C[C@H]3C(=O)N[C@]4(C(=O)NS(=O)(=O)C5(C)CC5)C[C@H]4/C=C\CCCCC[C@H](NC(=O)OC(C)(C)C)C(=O)N3C2)nc2c(-c3nc(Cc4cccc(OC(F)(F)F)c4)cs3)cccc21` [Compound 120], in test [1], the IC50 was below 10 nM. In addition, the EC50 in test [2] lay in the range of 10 to 100 nM.

With `CC(C)n1c(O[C@@H]2C[C@H]3C(=O)N[C@]4(C(=O)NS(=O)(=O)C5(C)CC5)C[C@H]4/C=C\CCCCC[C@H](NC(=O)OC(C)(C)C)C(=O)N3C2)nc2c(-c3nc(Cc4ccc(OC(F)(F)F)cc4)cs3)cccc21` [Compound 121], the IC50 in test [1] was below 10 nM. Also, the EC50 in test [2] fell in the range of 10 to 100 nM.

For `CC(C)n1c(O[C@@H]2C[C@H]3C(=O)N[C@]4(C(=O)NS(=O)(=O)C5(C)CC5)C[C@H]4/C=C\CCCCC[C@H](NC(=O)OC(C)(C)C)C(=O)N3C2)nc2c(-c3nc(Cc4ccc(Cl)cc4)cs3)cccc21` [Compound 122], the IC50 in test [1] is below 10 nM. For the same molecule, the EC50 in test [2] is above 100 nM.

With `COc1cccc(Cc2csc(-c3cccc4c3nc(O[C@@H]3C[C@H]5C(=O)N[C@]6(C(=O)NS(=O)(=O)C7(C)CC7)C[C@H]6/C=C\CCCCC[C@H](NC(=O)OC(C)(C)C)C(=O)N5C3)n4C(C)C)n2)c1` [Compound 123], the IC50 in test [1] is below 10 nM. Besides, in test [2], the EC50 is below 10 nM.

`COc1ccc(Cc2csc(-c3cccc4c3nc(O[C@@H]3C[C@H]5C(=O)N[C@]6(C(=O)NS(=O)(=O)C7(C)CC7)C[C@H]6/C=C\CCCCC[C@H](NC(=O)OC(C)(C)C)C(=O)N5C3)n4C(C)C)n2)cc1` [Compound 124]: the IC50 in test [1] was below 10 nM. The EC50 in test [2] is below 10 nM.

In the case of `CC(C)n1c(O[C@@H]2C[C@H]3C(=O)N[C@]4(C(=O)NS(=O)(=O)C5(C)CC5)C[C@H]4/C=C\CCCCC[C@H](NC(=O)OC(C)(C)C)C(=O)N3C2)nc2c(-c3csc(N4CCCC4)n3)cccc21` [Compound 125], the IC50 in test [1] is below 10 nM. Besides, in test [2], the EC50 was below 10 nM.

In the case of `CC(C)n1c(O[C@@H]2C[C@H]3C(=O)N[C@]4(C(=O)NS(=O)(=O)C5(C)CC5)C[C@H]4/C=C\CCCCC[C@H](NC(=O)OC(C)(C)C)C(=O)N3C2)nc2c(-c3cnccn3)cccc21` [Compound 126], the half-inhibitory concentration (IC50) in test [1] was below 10 nM. In test [2], the EC50 is below 10 nM.

Turning to `CC(C)n1c(O[C@@H]2C[C@H]3C(=O)N[C@]4(C(=O)NS(=O)(=O)C5(C)CC5)C[C@H]4/C=C\CCCCC[C@H](NC(=O)OC(C)(C)C)C(=O)N3C2)nc2c(-c3csc(N4CCN(C)CC4)n3)cccc21` [Compound 127], the IC50 in test [1] was below 10 nM. For the same molecule, the EC50 in test [2] is below 10 nM.

Take `CC(C)n1c(O[C@@H]2C[C@H]3C(=O)N[C@]4(C(=O)NS(=O)(=O)C5(C)CC5)C[C@H]4/C=C\CCCCC[C@H](NC(=O)OC(C)(C)C)C(=O)N3C2)nc2c(-c3cncc(N4CCCC4)n3)cccc21` [Compound 128]: in test [1], the IC50 was below 10 nM. Also, the EC50 in test [2] is below 10 nM.

Consider `CC(C)n1c(O[C@@H]2C[C@H]3C(=O)N[C@]4(C(=O)NS(=O)(=O)C5(C)CC5)C[C@H]4/C=C\CCCCC[C@H](NC(=O)OC(C)(C)C)C(=O)N3C2)nc2c(-c3cscn3)cccc21` [Compound 129], for which the IC50 in test [1] is below 10 nM. Besides, the EC50 in test [2] was below 10 nM.

Turning to `CC(C)n1c(O[C@@H]2C[C@H]3C(=O)N[C@]4(C(=O)NS(=O)(=O)N(C)C)C[C@H]4/C=C\CCCCC[C@H](NC(=O)OC(C)(C)C)C(=O)N3C2)nc2c(-c3nc(-c4cccc(Cl)c4)cs3)cccc21` [Compound 130], in test [1], the IC50 was below 10 nM. Moreover, the EC50 in test [2] lay within 10 to 100 nM.

Consider `COc1ccccc1-c1csc(-c2cccc3c2nc(O[C@@H]2C[C@H]4C(=O)N[C@]5(C(=O)NS(=O)(=O)N(C)C)C[C@H]5/C=C\CCCCC[C@H](NC(=O)OC(C)(C)C)C(=O)N4C2)n3C(C)C)n1` [Compound 131], for which, in test [1], the IC50 was below 10 nM. Also, the EC50 in test [2] lay within 10 to 100 nM.
